“And” between values parts separate entries of the source, which are not always exact repeats. Equal entries are not always repeated. ± gives the expanded uncertainty stated by the source.
Conditions: Liquid

C1CCCC1 [cyclopentane]
Conditions	viscosity
257.86 K, 100 kPa	0.6878 ± 0.014 mPa·s
257.87 K, 100 kPa	0.6871 ± 0.014 mPa·s
258.01 K, 100 kPa	0.6851 ± 0.014 mPa·s
262.93 K, 100 kPa	0.6393 ± 0.013 mPa·s and 0.6392 ± 0.013 mPa·s
262.93 K, 3100 kPa	0.6574 ± 0.013 mPa·s
262.93 K, 5600 kPa	0.6719 ± 0.013 mPa·s
262.93 K, 7900 kPa	0.6858 ± 0.014 mPa·s
262.93 K, 10100 kPa	0.6987 ± 0.014 mPa·s
262.93 K, 25800 kPa	0.795 ± 0.016 mPa·s
262.93 K, 50800 kPa	0.9583 ± 0.019 mPa·s
262.93 K, 75700 kPa	1.137 ± 0.023 mPa·s
262.93 K, 100700 kPa	1.333 ± 0.027 mPa·s
262.93 K, 125800 kPa	1.546 ± 0.031 mPa·s
262.93 K, 150800 kPa	1.782 ± 0.036 mPa·s
262.93 K, 175800 kPa	2.04 ± 0.041 mPa·s
262.93 K, 200800 kPa	2.322 ± 0.047 mPa·s
262.93 K, 225900 kPa	2.629 ± 0.053 mPa·s
262.93 K, 250900 kPa	2.967 ± 0.059 mPa·s
262.93 K, 275800 kPa	3.333 ± 0.067 mPa·s
262.93 K, 300600 kPa	3.725 ± 0.075 mPa·s
262.99 K, 100 kPa	0.6384 ± 0.013 mPa·s and 0.6388 ± 0.013 mPa·s
262.99 K, 3100 kPa	0.6562 ± 0.013 mPa·s
262.99 K, 5600 kPa	0.6709 ± 0.013 mPa·s
262.99 K, 8100 kPa	0.6858 ± 0.014 mPa·s
262.99 K, 10800 kPa	0.7025 ± 0.014 mPa·s
262.99 K, 25800 kPa	0.7943 ± 0.016 mPa·s
262.99 K, 50800 kPa	0.9576 ± 0.019 mPa·s
262.99 K, 75700 kPa	1.136 ± 0.023 mPa·s
262.99 K, 100500 kPa	1.33 ± 0.027 mPa·s
262.99 K, 125500 kPa	1.543 ± 0.031 mPa·s
262.99 K, 150500 kPa	1.778 ± 0.036 mPa·s
262.99 K, 175500 kPa	2.032 ± 0.041 mPa·s
262.99 K, 200200 kPa	2.307 ± 0.046 mPa·s
263.03 K, 100 kPa	0.6386 ± 0.013 mPa·s and 0.639 ± 0.013 mPa·s
263.03 K, 10600 kPa	0.7005 ± 0.014 mPa·s
263.03 K, 20600 kPa	0.7608 ± 0.015 mPa·s
263.03 K, 30600 kPa	0.8231 ± 0.017 mPa·s
263.03 K, 40500 kPa	0.8873 ± 0.018 mPa·s
263.03 K, 50500 kPa	0.9555 ± 0.019 mPa·s
263.03 K, 60500 kPa	1.024 ± 0.021 mPa·s
263.03 K, 70500 kPa	1.095 ± 0.022 mPa·s
263.03 K, 80600 kPa	1.171 ± 0.024 mPa·s
263.03 K, 90400 kPa	1.246 ± 0.025 mPa·s
263.03 K, 100400 kPa	1.327 ± 0.027 mPa·s
263.03 K, 110500 kPa	1.41 ± 0.028 mPa·s
263.03 K, 120500 kPa	1.496 ± 0.03 mPa·s
263.03 K, 130500 kPa	1.585 ± 0.032 mPa·s
263.03 K, 140400 kPa	1.677 ± 0.034 mPa·s
263.03 K, 150400 kPa	1.774 ± 0.036 mPa·s
263.03 K, 160500 kPa	1.874 ± 0.038 mPa·s
263.03 K, 170500 kPa	1.977 ± 0.04 mPa·s
263.03 K, 180400 kPa	2.083 ± 0.042 mPa·s
263.03 K, 190300 kPa	2.193 ± 0.044 mPa·s
263.03 K, 200200 kPa	2.27 ± 0.046 mPa·s
268.01 K, 100 kPa	0.6016 ± 0.012 mPa·s and 0.5994 ± 0.012 mPa·s
268.01 K, 3000 kPa	0.6145 ± 0.012 mPa·s
268.01 K, 5500 kPa	0.6285 ± 0.013 mPa·s
268.01 K, 8100 kPa	0.6428 ± 0.013 mPa·s
268.01 K, 10600 kPa	0.6569 ± 0.013 mPa·s
268.01 K, 25900 kPa	0.745 ± 0.015 mPa·s
268.01 K, 50900 kPa	0.8969 ± 0.018 mPa·s
268.01 K, 75900 kPa	1.065 ± 0.021 mPa·s
268.01 K, 100700 kPa	1.243 ± 0.025 mPa·s
268.01 K, 125700 kPa	1.44 ± 0.029 mPa·s
268.01 K, 150600 kPa	1.657 ± 0.033 mPa·s
268.01 K, 175700 kPa	1.896 ± 0.038 mPa·s
268.01 K, 200700 kPa	2.151 ± 0.043 mPa·s
268.01 K, 225600 kPa	2.432 ± 0.049 mPa·s
268.01 K, 250800 kPa	2.742 ± 0.055 mPa·s
268.01 K, 275300 kPa	3.073 ± 0.062 mPa·s
268.01 K, 301000 kPa	3.447 ± 0.069 mPa·s
268.01 K, 325300 kPa	3.833 ± 0.077 mPa·s
268.01 K, 351200 kPa	4.283 ± 0.086 mPa·s
268.01 K, 378000 kPa	4.766 ± 0.095 mPa·s
273.15 K, 100 kPa	0.5601 ± 0.011 mPa·s and 0.561 ± 0.011 mPa·s
273.15 K, 3100 kPa	0.5756 ± 0.012 mPa·s
273.15 K, 5600 kPa	0.5886 ± 0.012 mPa·s
273.15 K, 8100 kPa	0.6022 ± 0.012 mPa·s
273.15 K, 10600 kPa	0.6155 ± 0.012 mPa·s
273.15 K, 25900 kPa	0.6979 ± 0.014 mPa·s
273.15 K, 50800 kPa	0.8418 ± 0.017 mPa·s
273.15 K, 75800 kPa	0.9972 ± 0.02 mPa·s
273.15 K, 100700 kPa	1.166 ± 0.023 mPa·s
273.15 K, 125500 kPa	1.349 ± 0.027 mPa·s
273.15 K, 150500 kPa	1.55 ± 0.031 mPa·s
273.15 K, 175500 kPa	1.769 ± 0.035 mPa·s
273.15 K, 200500 kPa	2.006 ± 0.04 mPa·s
273.15 K, 225300 kPa	2.266 ± 0.045 mPa·s
273.15 K, 250600 kPa	2.552 ± 0.051 mPa·s
273.15 K, 275800 kPa	2.864 ± 0.057 mPa·s
273.15 K, 300700 kPa	3.198 ± 0.064 mPa·s

— the NIST ThermoML archive (doi:10.1021/je034142v)
